# Results published in patent US10258048B2, “Bacillus sp. strain with antifungal, antibacterial and growth promotion activity” (Marrone Bio Innovations, Inc, priority 2012, dated 2019).
# Tested on: Bacillus sp. isolate F727
# Assay: Antibiotic susceptibility of Bacillus sp. isolate F727, antibiotic discs on Mueller-Hinton agar
# Format: cell-based
# Parameters: key: +++ indicates highly susceptible (no growth); ++ indicates moderately susceptible (reduced growth); − indicates no susceptibility
# Details: pre-loaded antibiotic discs (load in ug); 25° C., 48 hours
# Description: Antibiotic susceptibility of Bacillus sp. isolate F727 was tested using antibiotic discs on Muller-Hinton medium. A loopful of F727 was resuspended in 1 mL of sterile deionized water, and 100 μL of this suspension was streaked onto a Mueller-Hinton agar plate. After absorption of the streak into the agar, pre-loaded antibiotic discs were placed on the plate, and the plate was incubated at 25° C. for 48 hours.
row,Compound,Susceptibility of Bacillus sp. F727 to various antibiotics
1,CO/N=C(\C(=O)N[C@@H]1C(=O)N2C(C(=O)O)=C(COC(N)=O)CS[C@H]12)c1ccco1 [Cefuroxime],+++
2,CCN1CCN(C(=O)N[C@@H](C(=O)N[C@@H]2C(=O)N3[C@@H]2SC(C)(C)[C@@H]3C(=O)O)c2ccccc2)C(=O)C1=O [Piperacillin],+++
3,C[C@@H](O)[C@H]1C(=O)N2C(C(=O)O)=C(SCCN=CN)C[C@H]12 [Imipenem],+++
4,Penicillin,+++
5,CC[C@H]1OC(=O)[C@H](C)[C@@H](O[C@H]2C[C@@](C)(OC)[C@@H](O)[C@H](C)O2)[C@H](C)[C@@H](O[C@@H]2O[C@H](C)C[C@H](N(C)C)[C@H]2O)[C@](C)(O)C[C@@H](C)C(=O)[C@H](C)[C@@H](O)[C@]1(C)O [Erythromycin],+++
6,O=C(O)c1cn(C2CC2)c2cc(N3CCNCC3)c(F)cc2c1=O [Ciprofloxacin],+++
7,CN(C)[C@@H]1C(O)=C(C(N)=O)C(=O)[C@@]2(O)C(O)=C3C(=O)c4c(O)cccc4[C@@](C)(O)[C@H]3C[C@@H]12 [Tetracycline],+++
8,NC[C@H]1O[C@H](O[C@H]2[C@H](O)[C@@H](O[C@H]3O[C@H](CO)[C@@H](O)[C@H](N)[C@H]3O)[C@H](N)C[C@@H]2N)[C@H](O)[C@@H](O)[C@@H]1O [Kanamycin],+++
9,CN(C)[C@@H]1C(O)=C(C(N)=O)C(=O)[C@@]2(O)C(O)=C3C(=O)c4c(O)cccc4[C@@](C)(O)[C@H]3[C@H](O)[C@@H]12 [Oxytetracycline],+++
10,[H]/N=C(/N)N[C@H]1[C@H](O)[C@@H](O)[C@H](O[C@@H]2O[C@@H](C)[C@](O)(C=O)[C@H]2O[C@@H]2O[C@@H](CO)[C@H](O)[C@@H](O)[C@@H]2NC)[C@@H](N/C(N)=N\[H])[C@@H]1O [Streptomycin],++
11,Sulphamethoxazole-Trimethoprim,+++
12,CC1(C)S[C@@H]2[C@H](NC(=O)[C@H](N)c3ccccc3)C(=O)N2[C@H]1C(=O)O [Ampicillin],+++
13,Gentamicin,+++
14,O=C(N[C@H](CO)[C@H](O)c1ccc([N+](=O)[O-])cc1)C(Cl)Cl [Chloramphenicol],+++
